Laboratory results reported in patent publication US20100298141A1, “SUBSTITUTED PYRIDINE N-OXIDE HERBICIDES” (E. I. DU PONT DE NEMOURS AND COMPANY, priority 2007, published 2010).

Tests used:
Test in all cases: Test A pre-/postemergence greenhouse test
[1] = system: morningglory; type: in vivo, Ipomoea spp.; details: for Plant response rating, Morningglory: 0 to 100 scale where 0 is no effect and 100 is complete control; for Morningglory plant response rating: 0 to 100 scale
Text: (§1) Seeds of barnyardgrass (Echinochloa crus-galli), crabgrass (Digitaria sanguinalis), giant foxtail (Setaria faberi), morningglory (Ipomoea spp.), redroot pigweed (Amaranthus retroflexus), velvetleaf (Abutilon theophrasti), wheat (Triticum aestivum), and corn (Zea mays) were planted into a blend of loam soil and sand and treated preemergence with a directed soil spray using test compounds formulated in a non-phytotoxic solvent mixture which included a surfactant. At the same time these species were also treated with postemergence applications of test compounds formulated in the same manner. Plants ranged in height from two to ten cm and were in the one- to two-leaf stage for the postemergence treatment. Treated plants and untreated controls were maintained in a greenhouse for approximately ten days, after which time all treated plants were compared to untreated controls and visually evaluated for injury. […] A dash (-) response means no test results.

[2] = system: velvetleaf; type: in vivo, Abutilon theophrasti; details: for Plant response rating, Velvetleaf: 0 to 100 scale where 0 is no effect and 100 is complete control; for Velvetleaf plant response rating: 0 to 100 scale
Text: as §1

[3] = system: barnyardgrass; type: in vivo, Echinochloa crus-galli; details: for Plant response rating, Barnyardgrass: 0 to 100 scale where 0 is no effect and 100 is complete control; for Barnyardgrass plant response rating: 0 to 100 scale
Text: as §1

[4] = system: crabgrass; type: in vivo, Digitaria sanguinalis; details: for Plant response rating, Crabgrass, Large: 0 to 100 scale where 0 is no effect and 100 is complete control; for Crabgrass, Large plant response rating: 0 to 100 scale
Text: as §1

[5] = system: giant foxtail; type: in vivo, Setaria faberi; details: for Plant response rating, Foxtail, Giant: 0 to 100 scale where 0 is no effect and 100 is complete control; for Foxtail, Giant plant response rating: 0 to 100 scale
Text: as §1

[6] = system: redroot pigweed; type: in vivo, Amaranthus retroflexus; details: for Plant response rating, Pigweed: 0 to 100 scale where 0 is no effect and 100 is complete control; for Pigweed plant response rating: 0 to 100 scale
Text: as §1

[7] = system: corn; type: in vivo, Zea mays; details: for Plant response rating, Corn: 0 to 100 scale where 0 is no effect and 100 is complete control; for Corn plant response rating: 0 to 100 scale
Text: as §1

[8] = system: wheat; type: in vivo, Triticum aestivum; details: for Plant response rating, Wheat: 0 to 100 scale where 0 is no effect and 100 is complete control; for Wheat plant response rating: 0 to 100 scale
Text: as §1

[9] = Postemergence, 500 g ai/ha, 0 is no effect, 100 is complete control
[10] = Preemergence, 125 g ai/ha, 0 no effect, 100 complete control
[11] = Preemergence, 500 g ai/ha, 0 no effect, 100 complete control

Compound | Plant response rating, Morningglory ([1]; Postemergence, 125 g ai/ha) | Morningglory plant response rating [1, 9] | Morningglory plant response rating [1, 10] | Morningglory plant response rating [1, 11] | Plant response rating, Velvetleaf ([2]; Postemergence, 125 g ai/ha) | Velvetleaf plant response rating [2, 9] | Velvetleaf plant response rating [2, 10] | Velvetleaf plant response rating [2, 11] | Plant response rating, Barnyardgrass ([3]; Postemergence, 125 g ai/ha) | Barnyardgrass plant response rating [3, 9] | Barnyardgrass plant response rating [3, 10] | Barnyardgrass plant response rating [3, 11] | Plant response rating, Crabgrass, Large ([4]; Postemergence, 125 g ai/ha) | Crabgrass, Large plant response rating [4, 9] | Crabgrass, Large plant response rating [4, 10] | Crabgrass, Large plant response rating [4, 11] | Plant response rating, Foxtail, Giant ([5]; Postemergence, 125 g ai/ha) | Foxtail, Giant plant response rating [5, 9] | Foxtail, Giant plant response rating [5, 10] | Foxtail, Giant plant response rating [5, 11] | further results
Cn1nc(C(F)(F)F)c(CS(=O)(=O)c2cc(C3CC3)cc[n+]2[O-])c1OCC(F)(F)F [Compound 119] | 10 | 20 | 30 | 80 | 10 | 50 | 20 | 70 | 40 | 60 | 50 | 90 | 40 | 60 | 80 | 90 | 30 | 70 | 90 | 100 | Plant response rating, Pigweed ([6]; Postemergence, 125 g ai/ha): 30; Pigweed plant response rating [6, 9]: 60; Pigweed plant response rating [6, 10]: 100; Pigweed plant response rating [6, 11]: 100; Plant response rating, Corn ([7]; Postemergence, 125 g ai/ha): 0; Corn plant response rating [7, 9]: 0; Corn plant response rating [7, 10]: 0; Corn plant response rating [7, 11]: 0; Plant response rating, Wheat ([8]; Postemergence, 125 g ai/ha): 30; Wheat plant response rating [8, 9]: 50; Wheat plant response rating [8, 10]: 0; Wheat plant response rating [8, 11]: 30
CC(C)c1cc[n+]([O-])c(S(=O)(=O)Cc2c(C(F)(F)F)nn(C)c2OCC(F)(F)F)c1 [Compound 111, 4-(1-methylethyl)-2-[[[1-methyl-5-(2,2,2-trifluoroethoxy)-3-trifluoromethyl-1H-pyrazol-4-yl]methyl]sulfonyl]pyridine 1-oxide] | 20 | 60 | 80 | 100 | 50 | 60 | 60 | 100 | 50 | 70 | 80 | 100 | 40 | 70 | 60 | 90 | 60 | 80 | 90 | 100 | Plant response rating, Pigweed ([6]; Postemergence, 125 g ai/ha): 60; Pigweed plant response rating [6, 9]: 60; Pigweed plant response rating [6, 10]: 50; Pigweed plant response rating [6, 11]: 100; Plant response rating, Corn ([7]; Postemergence, 125 g ai/ha): 0; Corn plant response rating [7, 9]: 40; Corn plant response rating [7, 10]: 0; Corn plant response rating [7, 11]: 50; Plant response rating, Wheat ([8]; Postemergence, 125 g ai/ha): 50; Wheat plant response rating [8, 9]: 60; Wheat plant response rating [8, 10]: 50; Wheat plant response rating [8, 11]: 80
CCCc1cc[n+]([O-])c([S+]([O-])Cc2c(C(F)(F)F)nn(C)c2OC(F)F)c1 (centres unmarked) [Compound 116] | 60 | 90 | 100 | 100 | 50 | 80 | 0 | 90 | 70 | 80 | 70 | 100 | 70 | 80 | 90 | 100 | 80 | 90 | 100 | 100 | Plant response rating, Pigweed ([6]; Postemergence, 125 g ai/ha): 70; Pigweed plant response rating [6, 9]: 90; Pigweed plant response rating [6, 10]: 100; Pigweed plant response rating [6, 11]: 100; Plant response rating, Corn ([7]; Postemergence, 125 g ai/ha): 60; Corn plant response rating [7, 9]: 90; Corn plant response rating [7, 10]: 60; Corn plant response rating [7, 11]: 90; Plant response rating, Wheat ([8]; Postemergence, 125 g ai/ha): 50; Wheat plant response rating [8, 9]: 60; Wheat plant response rating [8, 10]: 50; Wheat plant response rating [8, 11]: 80
CCCc1cc[n+]([O-])c(S(=O)(=O)Cc2c(C(F)(F)F)nn(C)c2OC(F)F)c1 [Compound 117] | 40 | 90 | 80 | 90 | 50 | 60 | 10 | 90 | 40 | 80 | 20 | 90 | 50 | 80 | 80 | 90 | 70 | 80 | 90 | 90 | Plant response rating, Pigweed ([6]; Postemergence, 125 g ai/ha): 60; Pigweed plant response rating [6, 9]: 80; Pigweed plant response rating [6, 10]: 100; Pigweed plant response rating [6, 11]: 100; Plant response rating, Corn ([7]; Postemergence, 125 g ai/ha): 0; Corn plant response rating [7, 9]: 40; Corn plant response rating [7, 10]: 20; Corn plant response rating [7, 11]: 60; Plant response rating, Wheat ([8]; Postemergence, 125 g ai/ha): 40; Wheat plant response rating [8, 9]: 50; Wheat plant response rating [8, 10]: 30; Wheat plant response rating [8, 11]: 70
